Test results reported in US10729740B2, “Lytic-peptide-Her2/neu (Human Epidermal growth factor Receptor 2) ligand conjugates and methods of use” (Esperance Pharmaceuticals, Inc., priority 2010, dated 2020).
Ends that are not written are not given here.

What was measured:
[1] = test system: Her2 receptor negative MDA-MB-231 cancer cells; assay: In vitro cytotoxicity, MTT assay, 48 h, MDA-MB-231
Experimental: (§1) 68) to the antibody at the C-terminus by NRVRRS (SEQ. ID NO. 57) linker). Cytotoxicity was compared to a naked antibody (antibody without a lytic peptide) in Her-2 receptor positive cells (SKBR-3 and SKOV-3, human breast and ovarian cancer cells, respectively) and Her-2 receptor negative breast cancer cells (MDA-MB-231).
(§2) Cells were prepared in 96 well plates using 2,000 cells/well and were allowed to attach for 48 hours. […] All data were processed and analyzed using Graph Pad Prizm 4™ software (Graph Pad Prizm, Inc).

[2] = test system: Her2 receptor positive SKBR-3 cancer cells; assay: In vitro cytotoxicity, MTT assay, 48 h, SKBR-3
Experimental: as §1, §2

[3] = test system: Her2 receptor positive SKOV-3 cancer cells; assay: In vitro cytotoxicity, MTT assay, 48 h, SKOV-3
Experimental: as §1, §2

KFAKFAKKFAKFAKKFAK [Phor-18, KFAKFAK KFAKFAK KFAK]
very minimal non-specific cytotoxicity: cytotoxicity to MDA-MB-231 cells (in words) [1] | cytotoxicity to SKBR-3 cells (in words) [2] | cytotoxicity to SKOV-3 cells (in words) [3]
